Assay results published in patent US12031986B2, “Polypeptide for targeting recognition of immune cells and application thereof” (KEYANGLE LIFE TECHNOLOGY CO., LTD., priority 2019, dated 2024).
Entries after “also recorded” stand apart in the source; their conditions may differ. No end group written: not given here.

Legend:
[1] = test system: mouse peritoneal macrophages; assay: In vivo fluorescent labeling of macrophages in a mouse abdominal cavity; conditions: probe injected into abdominal cavity, cells extracted after 4 hours, fluorescence microscope
Procedure: Dilute 300 μL of 50 μM AK9 fluorescent probe solution with serum-free DMEM incomplete medium to obtain 1 mL of solution, then inject into the abdominal cavities of 5-8 week old Kunming mice. After 4 hours, inject 5 mL of 1×PBS, and massage. After 10 minutes, sacrifice the mice by cervical vertebra dislocation. Cut the abdominal cavity skin of the mice, pierce the abdominal wall muscle by syringe, and extract the fluid in the abdominal cavity of the mice. Centrifuge the extracted peritoneal fluid at 1000 rpm for 5 min, wash twice with 1×PBS. Double-stain an appropriate number of cells with Alexa Fluor 488 anti-mouse F4/80 antibody (Biolegend). Add the stained cells to a 96-well plate and stain with a nuclear dye Nucblue (Invitrogen). Observe under EVOS FL Auto fluorescence microscope (Life Technologies, 20×, light source 50%, exposure 200 ms, gain 10) after the suspended cells were settled down at the bottom of the plate.
Table 1 lists probes, which contain the polypeptide fragments from the C-terminal fragments of Triokinases/FMN cyclases of different species and were prepared by a similar process as described in Examples 1 and 2, and in vivo imaging results of mouse peritoneal macrophages using these probes.

[2] = test system: mouse macrophage cell line RAW264.7; assay: In vitro fluorescence labeled staining of a mouse macrophage cell line; assay type: cell-based; conditions: 10 μM, incubated 1 h
Procedure: Culture the mouse macrophage cell line RAW264.7 in a 96-well plate, wash the wells once with 1×PBS buffer or a serum-free DMEM incomplete medium, remove the washing liquid, add EK24 solution of 10 μM which had been diluted with 100 μL of serum-free DMEM incomplete medium, and incubate in a cell culture incubator for 1 h. After that, wash the wells twice with 1× PBS buffer or the serum-free DMEM incomplete medium. Then, add DMEM complete medium containing 10% FBS and 1% streptomycin-penicillin, and double-stain the cells using nuclear dye Nucblue and observe under EVOS® FL Auto fluorescence microscope (Life Technologies, light source 10%, exposure 200 ms, gain 5).

[3] = test system: cultured macrophages isolated from mouse peritoneal cavity; assay: In vitro fluorescent labeling of cultured macrophages isolated from mouse peritoneal cavity; assay type: cell-based; conditions: 10 μM EK24 premixed with F4/80 antibody, 1 h at 37 °C
Procedure: Inject 5 mL of serum-free DMEM incomplete medium into the abdominal cavity of 5 to 8 weeks old mice, massage the abdominal cavity gently for 10 min, and sacrifice the mice by cervical vertebra dislocation. Extract the fluid from the abdominal cavity gently with a syringe, inject into a 5 mL centrifuge tube and centrifuge at 1000 rpm for 5 min, remove the supernatant, and resuspend the collected ex-vivo cells in DMEM/F12 medium containing 10% FBS, then add into a 96-well plate for culture. Generally, if cells are taken intraperitoneally for in vitro culture, macrophages would tend to adhere to the bottom of the well, and other cells would be washed off. The cells were cultured for more than 2 days until the cells attached to the bottom firmly. At this time, the cells remaining in the wells were basically macrophages. Select two wells, one as a control and the other as an experimental well. The cells of the control were nuclear stained with Nucblue. The experimental well was added with a premix of AlexaFluor®488 anti-mouse F4/80 antibody (Biolegend) and EK24 fluorescent probe, and then incubated for 1 h at 37° ° C. The premix contained 10 μM of EK24 solution and 2 μL of Alexa Fluor®488 anti-mouse F4/80 antibody diluted with 100 μL of serum-free DMEM incomplete medium. […] The cells were observed under a fluorescence microscope (20× objective lens, light source 10%, exposure 200 ms, gain 5).

[4] = test system: primary macrophages from rat peritoneal cavity; assay: In vitro fluorescent labeling of primary macrophages from rat peritoneal cavity; assay type: cell-based; conditions: SD rats, cells cultured more than 2 days
Procedure: With the same process as in Example 9, extract cells from the abdominal cavity of 5 to 8 weeks old SD rats using 20 mL serum-free DMEM incomplete medium and culture the cells in a 96-well plate. After culturing for more than 2 days until the cells attached to the bottom firmly, a well was selected and added with EK24 fluorescent probe for incubation. Then the cells were observed under a fluorescence microscope (20×, light source 10%, exposure 200 ms, gain 5).

[5] = test system: monocyte precursors from New Zealand White Rabbit bone marrow mesenchyme; assay: In vitro fluorescent labeling of primary monocyte precursors of New Zealand White Rabbit; assay type: cell-based; conditions: cultured
Source text: With a similar process to Example 11, bone marrow monocyte precursors of New Zealand White Rabbit were taken and cultured, then labeled by using EK24 fluorescent probe and Nucblue. Then the cells were observed under a fluorescence microscope (20×, light source 10%, exposure 200 ms, gain 5).

[6] = test system: cultured peritoneal macrophages and other cells released from enzyme-digested mesenterium; assay: Selective labeling of cultured peritoneal macrophages among other cells released from enzyme-digested mesenterium; assay type: cell-based, mouse; conditions: peritoneal cells and mesenteries trypsin-digested, cultured 3 days
Procedure: Take 5 to 8-week-old Kunming mice, inject intraperitoneally with 5 mL of serum-free DMEM incomplete medium. After 1 hour, sacrifice the mice by cervical vertebra dislocation. Make an incision on the skin of abdominal cavity, pierce the abdominal wall muscle using the syringe, and extract the fluid in the abdominal cavity of the mice. Wash twice with 1×PBS, collect peritoneal cells by centrifugation. Also take the mesenteries of the Kunming mice and purge twice with 1×PBS in centrifuge tubes. Incubate the obtained peritoneal cells and mesenteries in 0.25% trypsin solution and digest for 30 minutes. Enrich the cells by centrifugation, and then culture for 3 days in a 96-well plate using F12/DMEM culture solution containing 10% FBS and 1% streptomycin-penicillin. Referring to Example 5, label with the EK24 fluorescent probe and Nucblue. Then the cells were observed under a fluorescence microscope (20×, light source 10%, exposure 200 ms, gain 5).

[7] = test system: macrophages on mouse abdominal wall; assay: In vivo fluorescent labeling of macrophages on mouse abdominal wall; conditions: injected with FITC anti-mouse CD68 antibody; abdominal wall muscle removed
Procedure: Referring to Example 3, using the same drug injection process, inject EK24, and FITC anti-mouse CD68 antibody (Biolegend) which was diluted with PBS from 2 μL to 500 μL. Remove mouse abdominal wall muscle for Nucblue double-staining and then observing under a fluorescence microscope (20×, light source 50%, exposure 200 ms, gain 5).

[8] = test system: mouse alveolar macrophages; assay: In vivo fluorescent labeling of mouse pulmonary macrophages after spraying through the trachea; conditions: sprayed into the lungs through the trachea; whole lungs observed
Source text: In yet another aspect of the present disclosure, it provides a method for convenient, oral and non-invasive in situ imaging or targeted drug administration for pulmonary immune cells. After spraying into the trachea of a mouse, the polypeptide or probe of the present disclosure can be diffused along the trachea in the living body, automatically target and aggregate in alveolar macrophages, and thus allow real-time and in situ imaging or targeted drug delivery to pulmonary and alveolar macrophages. The imaging may be maintained for more than 24 hours. The experiments of the present disclosure confirm that the probe described above can diffuse to lungs through mouth inhalation, and recognize macrophages therein, which is consistent with CD11c antibody recognizing alveolar macrophages.
Spray 100 μL of 50 μM EK24-drug into the lungs of 4- to 8-week-old mice through the trachea thereof, and after 18 hours, dilute 5 μL of Alexa Fluor®488 anti-mouse CD11c antibody (Biolegend) to 100 μL and then spray into the lung for 1.5 h. Dissect the mice, and take the whole lungs for observing under a fluorescence microscope (20×, light source 50%, exposure 200 ms, gain 5).

Question: What does the source list for “EQPDPGAVAAAAILRAILEVLQS-Y (EQPDPGAVAAAAILRAILEVLQSY; also: reporter type not given here; listed as Homo sapiens) [EK24, Y = reporter or cysteine/lysine + reporter]”?
Answer: in vivo labeling / recognition of mouse peritoneal macrophages by the fluorescent probe [1]: can effectively recognize macrophages in vivo; also recorded: can be labeled; fluorescent labeling of RAW264.7 [2]: can be labeled; co-localization of probe label and F4/80 antibody label [3]: co-localized on the same cells; labeling of in vitro cultured primary macrophages from rat peritoneal cavity [4]: can effectively label; labeling of New Zealand White Rabbit bone marrow monocyte precursors [5]: capable of labeling; staining of macrophages in mixed culture [6]: only stains macrophages; staining of non-macrophages in mixed culture [6]: not stain non-macrophages; labeling of macrophages on mouse abdominal wall [7]: can be labeled; labeling of other cells of mouse abdominal wall [7]: cannot be labeled; recognition of mouse alveolar / pulmonary macrophages [8]: recognize the same cells in mouse alveoli
